The test system of data set [1] is U251 human glioblastoma cells. In words: MTT cytotoxicity assay, U251 cells. The format is cell-based. The note with it: for IC50: Homo sapiens, U-251, MTT, 72 h; for anticancer activity against U251 cells: at 100 µM concentration. As to the method: (§1) U251, T98G (Japanese Collection of Research Bioresources Cell Bank), and U87 human glioblastoma cell lines were incubated in Dulbecco’s Modified Eagle Medium (DMEM)/Ham’s F12 (Wako Pure Chemical Industries, Osaka, Japan), Eagle’s Minimum Essential Medium (EMEM; Wako Pure Chemical Industries, Osaka, Japan), and DMEM (Gibco/Thermo Fisher Scientific, Waltham, MA, USA) respectively, and supplemented with 10% fetal bovine serum (FBS; Sigma Aldrich, MO, USA). Jurkat human leukemic T-cell line was cultured in Roswell Park Memorial Institute (RPMI) 1640 (Wako Pure Chemical Industries, Osaka, Japan), supplemented with 10% FBS. PBMCs (Precision Bioservices, Frederick, MD, USA) were incubated in RPMI 1640 and supplemented with 10% human serum AB (HS) (Gemini, Woodland, CA, USA). All media were supplemented with 89 μg/mL streptomycin (Meiji Seika Pharma, Tokyo, Japan) at 37 °C in a humid atmosphere and 5% CO2. For each experiment, growing cells were plated at 4 × 10^4 cells/mL and 6 × 10^5 cells/mL into 24-well and 96-well microtiter tissue culture plates (Iwaki brand Asahi Glass Co., Chiba, Japan) respectively and incubated for 72 h before the addition of the drugs (the optimal cell number for cytotoxicity assays was determined in preliminary experiments). The stock solutions of the compounds and cisplatin (Sigma-Aldrich, St. Louis, MO, USA) in concentrations between 0.1–10 mM were prepared in dimethyl sulfoxide (DMSO; Wako Pure Chemical Industries, Osaka, Japan) and in H2O respectively, then were added to fresh culture medium. The concentration of DMSO and H2O in the final culture medium was 1% which had no effect on the cell viability.
(§2) The MTT (Dojindo Molecular Technologies, Kumamoto, Japan) assay was carried out using the U251, T98G, U87, Jurkat, and PBMC cells to determine the cytotoxicity of compounds 1–13 and cisplatin as previously described in the literature with small modifications. Treated cells were incubated with different concentrations (1–100 µM) of the compounds for 72 h at 37 °C in the CO2 incubator. About 100 µL (1.1 mg/mL) of MTT solution was added to each well and after further incubation for 4 h, formazan crystals formed. At the end of this period, the medium was removed and the formazan crystals were solubilized by the addition of 100 μL DMSO to each well. The absorbance was read on an Infinite M1000 plate reader (Tecan, Mannedorf, Switzerland) at a wavelength of 550 nm with background subtraction at 630 nm. All experiments were performed in triplicate and IC50 values were defined as the drug concentrations that reduced absorbance to 50% of control values.

For data set [2], the system named is K562 CML cell line. Also on record: method as in PMID 31574910. The note with it: previously reported by the authors; read-out: IC50, cytotoxic activity against K562 CML cell line; cited from earlier work.
The test system of data set [3] is T98G human glioblastoma cells. In words: MTT cytotoxicity assay, T98G cells. The settings on record: for IC50: Homo sapiens, T98G, MTT, 72 h; for anticancer activity against T98G cells: at 100 µM concentration. The format is cell-based. As to the method: as §1, §2
On the technique in general: Tetrazolium dyes change colour on reduction, which living cells bring about.

Data set [4] deals with U87 human glioblastoma cells. Briefly: MTT cytotoxicity assay, U87 cells. It is filed as cell-based. The note with it: for IC50: Homo sapiens, U-87 MG, MTT, 72 h; for anticancer activity against U87 cells: at 100 µM concentration. As for the experimental part: as §1, §2
The target in data set [5] is ABL1 kinase. Also on record: method as in PMID 31574910. The settings on record: previously reported by the authors; read-out: ABL1 kinase inhibition IC50; cited from earlier work.
The test system of data set [6] is K562 cells. Details: method as in PMID 31574910. The note with it: previously reported by the authors; cited from earlier work.
Data set [7] has as its system U251 cells. In words: Annexin V/ethidium homodimer III staining, apoptotic/necrotic cell detection. The format is cell-based, human. The note with it: 24 h; IC50 concentration (Figure 4 legend), 5 μM (method). As for the experimental part: U251 cells (4 × 10^4 cells/well) were seeded in each well of a 24-well plate with compound 10 and cisplatin at 5 μM concentration for 24 h. Then, the apoptotic/necrotic/healthy cells detection kit protocol was applied according to the manufacturer’s instructions (PromoKine, Heidelberg, Germany) with few modifications. Briefly, the cells were washed twice with 1 × binding buffer and then treated with FITC-Annexin V (5 μL), ethidium homodimer III (5 μL), and Hoechst 33342 (5 μL) for 20 min at room temperature in a protected-light environment. After washing in 1 × binding buffer, cells were analyzed under an all-in-one fluorescence microscope Biorevo Fluorescence BZ-9000 (Keyence, Osaka, Japan). Healthy cells, apoptotic cells, late apoptotic or necrotic cells, and necrotic cells were counted as previously described.

For data set [8], the target named is T1, EGFR (Homo sapiens, UniProt P00533).
T1 construct: purchased Promega Corporation
T1 sequence (P00533 25-1210): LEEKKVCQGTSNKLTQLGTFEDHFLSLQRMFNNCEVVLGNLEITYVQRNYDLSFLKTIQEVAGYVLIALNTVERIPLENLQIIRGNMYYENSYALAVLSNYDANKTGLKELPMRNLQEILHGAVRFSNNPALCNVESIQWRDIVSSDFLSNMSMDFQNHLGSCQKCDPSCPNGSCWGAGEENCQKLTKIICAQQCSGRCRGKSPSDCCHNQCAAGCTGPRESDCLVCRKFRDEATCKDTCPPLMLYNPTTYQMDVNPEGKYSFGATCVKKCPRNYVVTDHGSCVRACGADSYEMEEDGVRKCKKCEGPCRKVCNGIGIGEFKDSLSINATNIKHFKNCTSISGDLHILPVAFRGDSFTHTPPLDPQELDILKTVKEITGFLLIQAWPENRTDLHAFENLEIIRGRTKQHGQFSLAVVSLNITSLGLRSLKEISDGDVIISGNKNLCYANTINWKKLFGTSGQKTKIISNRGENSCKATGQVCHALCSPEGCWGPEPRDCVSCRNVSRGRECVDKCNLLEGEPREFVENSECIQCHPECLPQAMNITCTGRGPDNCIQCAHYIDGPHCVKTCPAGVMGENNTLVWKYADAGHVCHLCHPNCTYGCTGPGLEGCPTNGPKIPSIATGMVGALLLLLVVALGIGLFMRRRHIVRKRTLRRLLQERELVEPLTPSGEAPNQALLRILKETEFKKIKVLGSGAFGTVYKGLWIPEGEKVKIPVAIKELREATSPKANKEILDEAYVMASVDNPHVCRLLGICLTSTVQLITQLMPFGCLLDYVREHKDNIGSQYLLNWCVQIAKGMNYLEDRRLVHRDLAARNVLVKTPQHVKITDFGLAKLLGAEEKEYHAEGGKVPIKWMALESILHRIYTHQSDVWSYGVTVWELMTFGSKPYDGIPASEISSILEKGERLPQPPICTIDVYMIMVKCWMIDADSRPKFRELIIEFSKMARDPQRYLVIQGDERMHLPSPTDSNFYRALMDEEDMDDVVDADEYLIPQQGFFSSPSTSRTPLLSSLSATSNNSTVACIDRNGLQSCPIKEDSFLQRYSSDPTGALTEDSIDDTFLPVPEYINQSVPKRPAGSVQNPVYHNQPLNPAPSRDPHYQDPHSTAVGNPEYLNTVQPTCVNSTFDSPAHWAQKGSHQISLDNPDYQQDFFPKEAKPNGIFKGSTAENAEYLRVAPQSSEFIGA
In words: Kinase inhibition assay (ADP-Glo), EGFR. It is filed as biochemical. As to the method:
(§3) The kinase profiling assay protocol (TK1 and TK-2) was applied according to the manufacturer‘s instructions (Promega Corporation, Madison, WI, USA) with few modifications. In regard to this protocol, the EGFR, HER2, HER4, IGF1R, InsR, KDR, PDGFR-α, PDGFR-β, ABL1, BRK, BTK, CSK, FYN A, LCK, LYN B, and SRC kinase stocks in the kinase strips were diluted with 95 µL 2.5x kinase buffer and their substrate stock in the substrate strip was diluted with 15 µL of 100 µM ATP solutions. Then, the kinase reactions were performed using 2 µL of the kinase working stocks, 2 µL of the ATP/substrate working stocks, and 1 µL of compound solution (0.1–100 µM) or 5% DMSO solution in the 384-well plate. After 4 h of incubation at room temperature, the activity of kinases was detected using ADP-Glo Kinase Assay (Promega Corporation, Madison, WI, USA) according to the manufacturer‘s protocol. Briefly, 5 µL of ADP-Glo reagent was added into each well of 384-well plate and the mixture was incubated at room temperature for 40 min to stop the kinase reaction and deplete any ATP remaining. Then, 10 µL Kinase Detection Reagent was added and the mixture was incubated for a further 30 min to convert the kinase-produced ADP to ATP, and then to light.

Data set [9] has as its target T2, HER4 (Homo sapiens, UniProt Q15303).
T2 construct: purchased Promega Corporation
In words: Kinase profiling assay (ADP-Glo), HER4. It is filed as biochemical. The note with it: 30 µM concentration. As to the method: as §3, with “light. […]” for “light.”

Data set [10] concerns the target T3, IGF1R (Homo sapiens, UniProt P08069).
T3 construct: purchased Promega Corporation
In words: Kinase profiling assay (ADP-Glo), IGF1R. The note with it: 30 µM concentration. It is filed as biochemical. As for the experimental part:
as §3, with “light. […]” for “light.”
For orientation: ADP-Glo first removes unused ATP, then detects ADP through luciferase.

Data set [11] has as its system Jurkat human leukemic T-cells. In words: MTT cytotoxicity assay, Jurkat cells. The format is cell-based. As for the experimental part: as §1, §2
The target of data set [12] is T4, FYN A (Homo sapiens, UniProt P06241).
T4 construct: purchased Promega Corporation
T4 sequence (P06241 whole entry): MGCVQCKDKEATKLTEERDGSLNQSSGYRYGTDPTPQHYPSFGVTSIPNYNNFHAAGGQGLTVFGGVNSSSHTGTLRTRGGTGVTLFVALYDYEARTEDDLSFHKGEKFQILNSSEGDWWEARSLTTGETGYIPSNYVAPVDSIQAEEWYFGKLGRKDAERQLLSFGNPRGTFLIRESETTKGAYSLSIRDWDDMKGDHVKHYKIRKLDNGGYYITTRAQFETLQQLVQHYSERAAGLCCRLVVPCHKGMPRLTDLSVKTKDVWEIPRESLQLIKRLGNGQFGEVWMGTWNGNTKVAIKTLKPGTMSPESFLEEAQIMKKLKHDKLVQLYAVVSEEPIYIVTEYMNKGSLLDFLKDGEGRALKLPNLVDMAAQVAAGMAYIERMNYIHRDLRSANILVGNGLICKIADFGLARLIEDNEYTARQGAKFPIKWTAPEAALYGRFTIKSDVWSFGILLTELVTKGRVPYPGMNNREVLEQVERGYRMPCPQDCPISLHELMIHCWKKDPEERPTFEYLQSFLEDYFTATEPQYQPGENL
Briefly: Kinase profiling assay (ADP-Glo), FYN A. It is filed as biochemical. The note with it: 30 µM concentration. As for the experimental part:
as §3, with “light. […]” for “light.”

Data set [13] concerns the target T5, BRK (Homo sapiens, UniProt Q13882).
T5 construct: purchased Promega Corporation
In words: Kinase profiling assay (ADP-Glo), BRK. The note with it: 30 µM concentration. It is filed as biochemical. As to the method:
as §3, with “light. […]” for “light.”

Data set [14] concerns the target T6, SRC (Homo sapiens, UniProt P12931).
T6 construct: purchased Promega Corporation
Briefly: Kinase profiling assay (ADP-Glo), SRC. The note with it: 30 µM concentration. It is filed as biochemical. As to the method:
as §3, with “light. […]” for “light.”

Data set [15] concerns the target T7, LYN B (Homo sapiens, UniProt P07948).
T7 construct: purchased Promega Corporation
Briefly: Kinase profiling assay (ADP-Glo), LYN B. It is filed as biochemical. The settings on record: 30 µM concentration. As to the method: as §3, with “light. […]” for “light.”

The test system of data set [16] is human peripheral blood mononuclear cells (PBMCs). In words: MTT cytotoxicity assay, PBMCs. The note with it: Homo sapiens, PBMC, 72 h. The format is cell-based. As for the experimental part:
as §1, §2

Data set [17] addresses T8, BTK (Homo sapiens, UniProt Q06187).
T8 construct: purchased Promega Corporation
In words: Kinase profiling assay (ADP-Glo), BTK. The format is biochemical. The note with it: 30 µM concentration. As to the method:
as §3, with “light. […]” for “light.”

The target in data set [18] is T9, HER2 (Homo sapiens, UniProt P04626).
T9 construct: purchased Promega Corporation
In words: Kinase profiling assay (ADP-Glo), HER2. The format is biochemical. The settings on record: 30 µM concentration. As for the experimental part:
as §3, with “light. […]” for “light.”

The target of data set [19] is T10, ABL1 (Homo sapiens, UniProt P00519).
T10 construct: purchased Promega Corporation
T10 sequence (P00519 whole entry): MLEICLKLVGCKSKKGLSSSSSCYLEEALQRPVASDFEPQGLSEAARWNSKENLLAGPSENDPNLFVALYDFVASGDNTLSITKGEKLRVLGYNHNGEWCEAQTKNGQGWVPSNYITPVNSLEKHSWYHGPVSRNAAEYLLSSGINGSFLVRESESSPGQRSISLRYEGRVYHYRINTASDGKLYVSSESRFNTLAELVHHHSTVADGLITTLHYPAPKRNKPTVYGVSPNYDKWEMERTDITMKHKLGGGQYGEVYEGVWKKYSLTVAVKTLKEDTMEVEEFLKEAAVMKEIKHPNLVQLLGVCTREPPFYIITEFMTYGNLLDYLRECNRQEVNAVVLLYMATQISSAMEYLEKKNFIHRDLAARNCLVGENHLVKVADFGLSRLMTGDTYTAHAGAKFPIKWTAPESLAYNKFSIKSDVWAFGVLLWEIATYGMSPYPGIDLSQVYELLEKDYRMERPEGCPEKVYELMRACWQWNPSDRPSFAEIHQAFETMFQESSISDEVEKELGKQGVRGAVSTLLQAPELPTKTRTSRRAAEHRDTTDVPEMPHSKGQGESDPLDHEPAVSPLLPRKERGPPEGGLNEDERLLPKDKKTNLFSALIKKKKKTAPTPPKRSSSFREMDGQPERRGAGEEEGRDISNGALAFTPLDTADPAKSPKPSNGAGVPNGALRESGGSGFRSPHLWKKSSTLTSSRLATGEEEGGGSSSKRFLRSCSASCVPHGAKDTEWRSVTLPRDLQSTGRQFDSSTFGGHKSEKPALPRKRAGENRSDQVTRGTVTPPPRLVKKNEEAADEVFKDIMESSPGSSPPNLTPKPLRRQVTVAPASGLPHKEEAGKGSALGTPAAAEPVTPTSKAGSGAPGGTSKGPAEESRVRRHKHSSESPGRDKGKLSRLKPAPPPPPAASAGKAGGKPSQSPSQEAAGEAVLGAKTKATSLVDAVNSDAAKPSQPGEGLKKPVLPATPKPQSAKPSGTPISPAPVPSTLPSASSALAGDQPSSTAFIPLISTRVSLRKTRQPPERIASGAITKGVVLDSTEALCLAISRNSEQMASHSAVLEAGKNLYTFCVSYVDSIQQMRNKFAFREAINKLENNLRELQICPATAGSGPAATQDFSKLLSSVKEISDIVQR
Briefly: Kinase profiling assay (ADP-Glo), ABL1. The note with it: 30 µM concentration. The format is biochemical. As to the method: as §3, with “light. […]” for “light.”

T7 sequence (P07948 1-491 isoform P07948-2): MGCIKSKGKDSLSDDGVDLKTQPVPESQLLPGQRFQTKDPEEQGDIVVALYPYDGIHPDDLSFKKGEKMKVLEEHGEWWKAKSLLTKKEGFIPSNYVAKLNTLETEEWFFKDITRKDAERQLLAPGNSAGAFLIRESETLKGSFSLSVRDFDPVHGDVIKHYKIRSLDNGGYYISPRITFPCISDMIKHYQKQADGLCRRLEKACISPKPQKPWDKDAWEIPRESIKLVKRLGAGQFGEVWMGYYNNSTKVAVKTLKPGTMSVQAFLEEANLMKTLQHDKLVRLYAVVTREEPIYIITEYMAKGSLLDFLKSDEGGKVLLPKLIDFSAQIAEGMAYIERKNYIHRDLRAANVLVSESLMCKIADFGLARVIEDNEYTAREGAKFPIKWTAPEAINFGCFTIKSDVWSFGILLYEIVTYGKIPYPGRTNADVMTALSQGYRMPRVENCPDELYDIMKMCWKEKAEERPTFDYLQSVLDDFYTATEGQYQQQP
T2 sequence (Q15303 26-1308): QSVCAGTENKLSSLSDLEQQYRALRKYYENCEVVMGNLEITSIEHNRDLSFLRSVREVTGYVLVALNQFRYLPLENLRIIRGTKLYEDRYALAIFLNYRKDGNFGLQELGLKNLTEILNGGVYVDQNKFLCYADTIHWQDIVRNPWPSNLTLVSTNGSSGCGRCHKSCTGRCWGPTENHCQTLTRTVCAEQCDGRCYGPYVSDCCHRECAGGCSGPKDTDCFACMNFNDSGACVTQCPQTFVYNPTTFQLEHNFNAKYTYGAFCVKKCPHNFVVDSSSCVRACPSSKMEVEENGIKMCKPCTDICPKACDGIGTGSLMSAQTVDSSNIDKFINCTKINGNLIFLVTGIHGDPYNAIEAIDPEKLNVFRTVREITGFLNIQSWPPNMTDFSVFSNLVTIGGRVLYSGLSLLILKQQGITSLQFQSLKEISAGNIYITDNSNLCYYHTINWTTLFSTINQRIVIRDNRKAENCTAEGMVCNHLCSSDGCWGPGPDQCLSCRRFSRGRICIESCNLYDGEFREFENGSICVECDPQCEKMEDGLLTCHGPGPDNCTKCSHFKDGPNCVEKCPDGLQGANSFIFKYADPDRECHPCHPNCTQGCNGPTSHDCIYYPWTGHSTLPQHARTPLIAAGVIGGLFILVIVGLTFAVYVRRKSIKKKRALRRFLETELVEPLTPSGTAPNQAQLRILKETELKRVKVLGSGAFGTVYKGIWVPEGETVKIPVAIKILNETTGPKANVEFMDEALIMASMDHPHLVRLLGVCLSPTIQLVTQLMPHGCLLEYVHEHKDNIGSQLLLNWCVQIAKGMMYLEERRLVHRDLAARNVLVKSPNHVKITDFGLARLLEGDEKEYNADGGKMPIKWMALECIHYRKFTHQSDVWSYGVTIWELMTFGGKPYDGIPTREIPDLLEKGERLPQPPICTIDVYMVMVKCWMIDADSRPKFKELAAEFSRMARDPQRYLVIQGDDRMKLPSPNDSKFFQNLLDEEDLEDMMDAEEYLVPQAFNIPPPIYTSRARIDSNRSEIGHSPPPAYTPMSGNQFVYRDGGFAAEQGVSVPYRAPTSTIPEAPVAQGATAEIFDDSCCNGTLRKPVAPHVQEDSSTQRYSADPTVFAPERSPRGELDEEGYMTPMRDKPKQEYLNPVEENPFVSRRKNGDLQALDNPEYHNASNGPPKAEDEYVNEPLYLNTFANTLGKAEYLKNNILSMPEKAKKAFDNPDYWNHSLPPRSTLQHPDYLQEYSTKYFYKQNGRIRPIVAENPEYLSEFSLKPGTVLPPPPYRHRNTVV
T5 sequence (Q13882 whole entry): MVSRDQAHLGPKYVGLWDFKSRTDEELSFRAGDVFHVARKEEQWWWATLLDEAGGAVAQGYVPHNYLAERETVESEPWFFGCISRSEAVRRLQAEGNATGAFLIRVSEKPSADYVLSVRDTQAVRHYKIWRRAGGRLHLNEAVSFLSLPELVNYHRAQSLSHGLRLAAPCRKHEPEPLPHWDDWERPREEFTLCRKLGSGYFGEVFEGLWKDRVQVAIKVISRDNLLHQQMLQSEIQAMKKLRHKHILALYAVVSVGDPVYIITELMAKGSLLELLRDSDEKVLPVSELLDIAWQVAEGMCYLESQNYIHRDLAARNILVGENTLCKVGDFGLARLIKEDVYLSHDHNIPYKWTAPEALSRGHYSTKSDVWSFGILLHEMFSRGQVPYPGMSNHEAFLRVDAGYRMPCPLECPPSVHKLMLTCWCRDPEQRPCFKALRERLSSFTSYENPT

For orientation: IC50 means the concentration at which inhibition is half-maximal. For `CC1(C)CC[C@]2(C(=O)OCc3ccccc3)CC[C@]3(C)C(=CC[C@@H]4[C@@]5(C)CC[C@H](O)C(C)(C)[C@@H]5CC[C@]43C)[C@@H]2C1` [Compound 5], the half-inhibitory concentration (IC50) in [1] is above 100 µM; in data set [2], 5.46 µM; in data set [3], above 100 µM; in data set [4], above 100 µM; in [5], 1.44 µM. For the same compound, the “anticancer activity against U251 cells” value in data set [1] is “no significant anticancer activity”. Further, the “anticancer activity against T98G cells” value in [3] is recorded as “no significant anticancer activity”. The “anticancer activity against U87 cells” value in [4] is “no significant anticancer activity”.
For `CC1(C)CC[C@]2(C(=O)OCc3cc(C(F)(F)F)cc(C(F)(F)F)c3)CC[C@]3(C)C(=CC[C@@H]4[C@@]5(C)CC[C@H](O)[C@@](C)(C=O)[C@@H]5CC[C@]43C)[C@@H]2C1` [Compound 8], in [1], the concentration for half-maximal inhibition (IC50) is above 100 µM and the “anticancer activity against U251 cells” value is listed as “no significant anticancer activity”. Moreover, the IC50 in [2] was 4.78 µM. Further, in data set [3], the half-maximal inhibitory concentration (IC50) is above 100 µM and the “anticancer activity against T98G cells” value was “no significant anticancer activity”. Besides, in data set [4], the IC50 is above 100 µM and the “anticancer activity against U87 cells” value is given as “no significant anticancer activity”. For the same compound, the “apoptosis in K562 cells” value in data set [6] is on record as 24%.
In general, melting point refers to the temperature, or range, at which the solid turns liquid. In turn, `C[C@@H](NCC1(C)C(O)CCC2(C)C1CCC1(C)C2CC=C2C3CC(C)(C)CCC3(C(=O)O)CCC21C)c1ccccc1` (stereo partly drawn) [Compound 10, 10-Hydroxy-2,2,6a,6b,9,12a-hexamethyl-9-[(((R)-1-phenylethyl)amino)methyl]-1,2,3,4,4a,5,6,6a,6b,7,8,8a,9,10,11,12,12a,12b,13,14b-icosahydropicene-4a-carboxylic acid] yielded a melting point of 240 to 243 °C. In [1], this compound came in with an IC50 of 5.82 ± 1.66 µM. Besides, in data set [7], the “apoptosis in U251 cells” value is reported as 10.29%. Moreover, in data set [8] (30 µM concentration, stronger inhibition of EGFR than InsR), the “EGFR inhibition relative to InsR inhibition” value is on record as “approximately 2 fold”. In addition, it took 9.43 µM to reach half-maximal inhibition in data set [8] (ADP-Glo kinase assay) (IC50). Besides, the HER4 inhibition entry in [9] was “no significant inhibition”. Moreover, the IGF1R inhibition result in data set [10] is recorded as “no significant inhibition”. For the same compound, the half-maximal inhibitory concentration (IC50) in data set [3] is 8.19 ± 2.42 µM. The compound also came in with an IC50 in [11] (Homo sapiens, Jurkat, MTT, 72 h) of 3.56 ± 1.45 µM. In addition, in data set [11] (SI = IC50 for PBMCs/IC50 for Jurkat cells), the “SI (selectivity index)” value was 7.90. The “FYN A inhibition” value in [12] is listed as “moderate”. The IC50 in [4] amounted to 17 ± 4.92 µM. Also, the BRK inhibition entry in data set [13] was “no significant inhibition”. Also, in [14], the SRC inhibition result was “no significant inhibition”. Besides, the “LYN B inhibition” value in [15] is “no significant inhibition”. Also, the half-inhibitory concentration (IC50) in data set [16] was 28.1 ± 5.05 µM. In data set [17], the BTK inhibition entry is given as “no significant inhibition”. In addition, the HER2 inhibition result in [18] is listed as “moderate”. In data set [19], the ABL1 inhibition result is given as “moderate”.

The values above are taken from article PMC8537327, “EGFR-Targeted Pentacyclic Triterpene Analogues for Glioma Therapy” (International Journal of Molecular Sciences, 2021).
